Here are results for two molecules from patent US11052091B2, “BRK inhibitory compound” (ONO PHARMACEUTICAL CO., LTD., priority 2016, dated 2021).

pIC50: −log10 of the molar value.

One experiment deals with p38α (Homo sapiens (Human), UniProt Q16539). Put plainly: Enzyme inhibitory activity on kinases other than Brk (selectivity), p38α. It counts as biochemical. To be noted: compound concentration of 1 μmol/L; read-out: inhibition rates (%) p38α. The protocol: The compound of the present invention was dissolved in DMSO to prepare a solution with a concentration of 100 times the test concentration of 1 μmol/L. The solution was further diluted 25-fold with Assay Buffer (20 mmol/L HEPES, 0.01% Triton X-100, 2 mmol/L DTT, pH 7.5) to give a test substance solution. With regard to a positive control substance, a solution of the positive control substance was prepared in a similar manner.
Chain of p38α (Q16539 whole entry): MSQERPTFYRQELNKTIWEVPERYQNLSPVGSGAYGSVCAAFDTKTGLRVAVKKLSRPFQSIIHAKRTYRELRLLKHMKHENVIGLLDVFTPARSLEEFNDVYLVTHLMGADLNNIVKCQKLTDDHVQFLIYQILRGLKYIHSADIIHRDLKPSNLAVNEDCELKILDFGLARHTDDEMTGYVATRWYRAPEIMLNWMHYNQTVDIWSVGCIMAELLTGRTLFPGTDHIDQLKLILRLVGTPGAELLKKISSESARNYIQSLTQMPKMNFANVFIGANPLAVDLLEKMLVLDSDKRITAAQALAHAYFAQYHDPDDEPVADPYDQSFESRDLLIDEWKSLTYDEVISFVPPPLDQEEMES
Five microliters of a test substance solution with a concentration of four times prepared by using Assay Buffer, 5 μL of a solution of a substrate/ATP/a metal (Mg) with a concentration of four times and 10 μL of a solution of kinase with a concentration of two times were mixed in a well of a 384-well plate made of polypropylene, and the mixture was subjected to a reaction at room temperature for 1 hour. To the mixture, 60 μL of Termination Buffer (QuickScout Screening Assist MSA; Cama Biosciences, Inc.) was added to stop the reaction. The substrate peptide and the phosphorylated peptide in the reaction solution were separated, and were quantified. The kinase reaction was evaluated by a product ratio (P/(P+S)) calculated from a peak height (S) of the substrate peptide and a peak height (P) of the phosphorylated peptide. As other kinases, kinase selectivity experiments were performed using, for example, the p38α and Syk kinases. […]

The target in a further experiment is Brk enzyme (Homo sapiens (Human), UniProt Q13882). Put plainly: Measurement of Brk inhibitory activity (LanthaScreen TR-FRET). To be noted: read-out: Brk inhibitory activity (IC50).
Chain of Brk enzyme (Q13882 whole entry): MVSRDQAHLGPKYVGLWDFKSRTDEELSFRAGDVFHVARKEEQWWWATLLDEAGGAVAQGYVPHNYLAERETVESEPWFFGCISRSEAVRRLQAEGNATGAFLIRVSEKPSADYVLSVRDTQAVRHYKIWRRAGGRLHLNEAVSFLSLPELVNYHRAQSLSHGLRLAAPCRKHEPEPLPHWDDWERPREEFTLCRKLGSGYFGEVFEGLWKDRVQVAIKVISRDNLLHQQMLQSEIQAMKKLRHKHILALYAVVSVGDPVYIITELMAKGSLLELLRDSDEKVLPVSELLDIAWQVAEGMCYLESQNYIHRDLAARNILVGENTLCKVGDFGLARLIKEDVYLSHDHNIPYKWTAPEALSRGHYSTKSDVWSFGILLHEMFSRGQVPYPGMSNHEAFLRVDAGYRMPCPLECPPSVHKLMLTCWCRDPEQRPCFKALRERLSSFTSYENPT

Experimental for Brk enzyme: Measurement of an inhibitory activity on Brk enzyme was performed by using LanthaScreen (registered trademark) system (Invitrogen) in accordance with the attached manual. Reagents used are described below.
Reaction Buffer: A solution containing 50 mmol/L HEPES (pH 7.5), 0.01% Brij 35, 10 mmol/L MgCl2 and 1 mmol/L EGTA was prepared by using purified water.
A solution of a test substance (the compound of the present invention): A solution of each concentration of a test compound in DMSO was diluted 20-fold with Reaction Buffer, and a solution containing a test compound at a concentration 5 times a final concentration was prepared. An enzyme solution: A solution containing 480 ng/mL of Brk enzyme was prepared by using Reaction Buffer. […] A detection solution: A solution containing 20 mmol/L of EDTA and 4 nmol/L of PY20 (Invitrogen) was prepared by using Dilution B (Invitrogen).
To a 96-well plate (Nunc), a solution of 10 mmol/L of a test compound in DMSO was dispensed, and further, a dilution series at a common ratio of three was prepared by using DMSO. […] The phosphorylation of the artificial substrate was quantified by Time-Resolved Fluorescence Resonance Energy Transfer (TR-FRET). […]

For the molecule `CC(C)n1c(=O)n(-c2ccc(F)c3[nH]ncc23)c2c(N)nc(Nc3ccc(S(C)(=O)=O)cc3F)nc21` [Example 3, 6-amino-7-(7-fluoro-1H-indazol-4-yl)-2-{[2-fluoro-4-(methylsulfonyl)phenyl]amino}-9-isopropyl-7,9-dihydro-8H-purin-8-one], on p38α, the inhibition at 1 µM is at most 24%. As for “6-amino-2-{[2-difluoro-4-(methylsulfonyl)phenyl]amino}-7-(7-fluoro-1H-indazol-4-yl)-9-isopropyl-7,9-dihydro-8H-purin-8-one [Example 5-11]”, the pIC50 at Brk enzyme is 7.66.

A word on the inhibition: it is the percentage by which the read-out fell short of the control. By pIC50 is commonly meant the IC50 on a negative log10 scale, so that one unit is a factor of ten.
